Measured values reported in patent US11413261B2, “Pharmaceutical composition for treating cancer comprising lactate metal salt” (METIMEDI PHARMACEUTICALS CO., LTD, priority 2014, dated 2022).

How the values were obtained:
[1] = tested on: human colorectal cancer cell lines (HCT-116 and HT-29); assay: Calcium level in cancer cells (Fluo-3/AM, confocal microscope); type: cell-based; conditions: 2.5 mM, 24 hours, vs untreated
Procedure: Each of human colorectal cancer cell lines (HCT-116 and HT-29) with the cell number of 5×10^5 cells cultured in a cancer cell culture medium (RPMI1640 medium including 10% FBS and 1% penicillin/streptomycin) at 37° C. with 5% CO2 was treated with 2.5 mM calcium lactate and then cultured for 24 hours. The cultured cancer cells were treated with 10 μM Fluo-3/AM calcium indicator and 25% Pluronic F-127, reacted at 37° C. for 30 minutes, applied with fluorescence probes, and then photographed with a confocal microscope (FIG. 2). In this case, cancer cells untreated with calcium lactate were used as control groups.

[2] = tested on: human colorectal cancer cell lines (HCT-116 and HT-29); assay: pH inside and outside cancer cell; type: cell-based; conditions: 2.5 mM
Procedure: Specifically, with the cells cultured in Example 2-1, an extracellular pH was measured with a pH meter from the medium for the cells treated with calcium lactate and then cultured and an intracellular pH was measured with a pH detection kit (Life Technologies, CA) from the cells treated with calcium lactate and then cultured (FIG. 4). In this case, cancer cells untreated with calcium lactate were used as control groups.

PARP = PARP protein expression in HCT-116 treated with calcium lactate, IS, CA alone or in combination; type: cell-based, human; conditions: 5 mM calcium lactate alone, 24 hours
Procedure: The protein expression levels of PARP expressed in the colorectal cancer cell line were compared (FIG. 9) after a human colorectal cancer cell line (HCT-116) was treated individually or in combination for 24 hours with 5 mM calcium lactate, 5-indane sulfornamide (IS) as an inhibitor of carbonic anhydrase, or cinnamic acid (CA) as an inhibitor of MCT-4 which is a pathway of lactate. In this case, an untreated cancer cell line was used as a control group.

[3] = tested on: PDH (pyruvate dehydrogenase); assay: PDH protein expression (immunofluorescence); type: cell-based, human; conditions: HCT-116 and HT-29; 2.5 mM, 24 hours
Procedure: After the same method as that of Example 6-1 except that an anti-rabbit PDH antibody was used instead of the anti-rabbit LDHB antibody was performed, protein expression levels of PDH in human colorectal cancer cell lines (HCT-116 and HT-29) treated with calcium lactate were measured (FIG. 13).

[4] = tested on: breast cancer cell lines (MCF-7 and MDA-MB231); assay: Cell migration of breast cancer cell lines; type: cell-based; conditions: 2.5 mM, vs untreated
Procedure: A colorectal cancer cell line HCT-116 with the cell number of 4×10^5 cells was inoculated into a culture container at the center of which an ibidi culture insert having a thickness of 500 μm was placed, and treated with 2.5 mM calcium lactate and then cultured for 24 hours. Then, the insert was removed and further cultured for 12 hours to analyze migration of the cancer cells to a site where the insert was removed using a JuLi Br, Live cell analyzer (NanoEnTek Inc., South Korea) (FIG. 18). In this case, a colorectal cancer cell line cultured without treating with calcium lactate was used as a control group.
Using the same method as Example 8-1, with breast cancer cell lines (MCF-7 and MDA-MB231) instead of the colorectal cancer cell line, an effect of calcium lactate on migration of the breast cancer cell lines was examined (FIG. 19).

[5] = tested on: human breast cancer cell line (MCF-7) showing a resistance to Trastuzumab; assay: Colony-forming ability, Trastuzumab in combination with calcium lactate (6-well plates); type: cell-based; conditions: Trastuzumab-resistant MCF-7; 2.5 mM calcium lactate alone; vs control
Description: Then, the colony-forming abilities of the cells were compared. In this case, a human breast cancer cell line (MCF-7) untreated with any drug was used as a control group (FIGS. 54a and 54b).

**Q.** Which “concentration of calcium in cancer cells” value [1] does the source give for `CC(O)C(=O)[O-].CC(O)C(=O)[O-].[Ca+2]` (stereo not shown) [calcium lactate] here?
**A.** The value was “increased”.

**Q.** And the “intracellular pH” value ([2]; pH detection kit)?
**A.** Its value is “decreased to acidic condition”.

**Q.** And the “extracellular pH” value ([2]; pH meter, medium)?
**A.** Its value is “not changed”.

**Q.** What about the “protein expression levels of PARP” value (PARP) of the same molecule?
**A.** The value was “decreased”.

**Q.** And the “protein expression levels of PDH” value [3]?
**A.** Its value is “sharply increased”.

**Q.** And the “cell migration (metastatic capacity)” value [4]?
**A.** The value was “relatively low levels of metastasis”.

**Q.** And the colony-forming ability [5]?
**A.** The colony-forming ability was “decreased”.
